# Laboratory results published in publication PMC9953095, “Design, Synthesis and Biological Evaluation of Quinazolinamine Derivatives as Breast Cancer Resistance Protein and P-Glycoprotein Inhibitors with Improved Metabolic Stability” (Biomolecules, 2023).
# “And” between values parts separate entries of the source, which are not always exact repeats. Equal entries are not always repeated.
# How the values were obtained:
# [1] = tested on: BCRP-overexpressing H460/MX20 cells; assay: [3H]-mitoxantrone accumulation assay, H460/MX20; type: cell-based, human; conditions: resistant H460/MX20 cells; compound 5 μM; Figure 6A
# Experimental: (§1) To determine the accumulation of drugs on H460, H460/MX20, KB-3-1, and KB-C2 cells, the cells ([…] cells/well) were seeded in the 24-well plates and incubated at 37 °C with 5% CO2 [17]. After 12 h of incubation, a test compound (5 µM) was added and the plates were incubated at 37 °C for 2 h. Cells were then incubated with 0.01 µM [^3H]-MX or [^3H]-paclitaxel-containing medium for an additional 2 h at 37 °C, with or without a test compound. The cells were washed twice with ice-cold phosphate-buffered saline (PBS), trypsinized and lysed at the end of incubation. The radioactivity was measured using the Packard TRICARB1 1900A liquid scintillation analyzer.
# [2] = tested on: P-gp-mediated multidrug-resistant cell line KB-C2; assay: MTT reversal assay with paclitaxel, KB-C2 cells; type: cell-based, human; conditions: Figure 5A
# Experimental: The human lung cancer cell line H460, and its MX-selected derivative BCRP-overexpressing cell line, H460/MX20, were used in this study. The KB-C2 cell line was selected by colchicine (Alfa Aesar, Haverhill, MA, USA) (2 μg/mL) with human cervical carcinoma cell line KB-3-1.
# Cytotoxicity tests and reversal experiments were performed using the 3-(4,5-dimethylthiazol-2-yl)-2,5-diphenyltetrazolium bromide (MTT) colorimetric assay. Cells were seeded evenly into 96-well plates. […] To determine the MDR reversal efficacy of the quinazolinamine derivatives, an anticancer drug (mitoxantrone, colchicine, paclitaxel or cisplatin) was added into the designated wells after 2 h pre-incubation with a quinazolinamine derivative or a positive control inhibitor at non-toxic concentrations. After 72 h of drug incubation, the MTT reagent (4 mg/mL) was added into the wells, and then the plates were incubated for an additional 4 h. Subsequently, the supernatant was discarded and 100 µL of dimethyl sulfoxide (DMSO) was added to dissolve the formazan crystals. Cell viability was determined by measuring the absorbance by using an accuSkan™ GO UV/Vis Microplate Spectrophotometer (Fisher Sci., Fair Lawn, NJ, USA) at a wavelength of 570 nm.
# [3] = tested on: BCRP protein in H460/MX20 cells; assay: Western blot of BCRP expression in H460/MX20 cells; type: cell-based, human
# Experimental: (§2) Cells in T25 flask were washed with ice-cold PBS. Lysis buffer (100 µL) was added into T25 flask. Using a cell scraper, scrape adherent cells were scraped off the flask and the cell suspension was transferred into a microcentrifuge tube (1.5 mL). Cells were agitated for 20 min at 4 °C and cell lysate was centrifuged mixture at 4 °C for 20 min at 12,000 rpm. The supernatant (lysate) was used for the gel electrophoresis. Equal amounts of total cell lysates (20 µg protein) were resolved by sodium dodecyl sulfate polyacrylamide gel electrophoresis (SDS-PAGE) and electrophoretically transferred onto polyvinylidene fluoride (PVDF) membranes. After incubation in a blocking solution (5% milk) for 2 h at room temperature, the membranes were incubated overnight with primary monoclonal antibodies against GAPDH (GA1R) (Invitrogen, Carlsbad, CA, USA) at 1:1000 dilution of BCRP protein (BXP 21) (Sigma-Aldrich, Inc., St. Louis, MO, USA) (1:1000) or P-gp (F4) (Sigma-Aldrich, Inc., St. Louis, MO, USA) at 4 °C, and were further incubated with horseradish […] (HRP)-conjugated secondary antibody (Thermo Fisher Scientific Inc., Waltham, MA, USA) at 1:1000 dilution for 2 h at room temperature. The protein antibody complex was detected using an enhanced chemiluminescence detection system. The grayscale ratio was analyzed by ImageJ and normalized by the grayscale of the ABC protein divided by that of GAPDH.
# [4] = tested on: H460 cells; assay: [3H]-mitoxantrone accumulation assay, H460; type: cell-based, human; conditions: parental H460 cells; compound 5 μM; Figure 6A
# Experimental: as §1
# [5] = target: T1, P-gp ATPase (Homo sapiens, UniProt P08183); assay: Vanadate-sensitive P-gp ATPase assay; type: biochemical; conditions: membrane vesicles of High Five insect cells; Figure 10C
# T1 construct: host or cells: High Five insect cells (membrane vesicles)
# T1 sequence (P08183 whole entry): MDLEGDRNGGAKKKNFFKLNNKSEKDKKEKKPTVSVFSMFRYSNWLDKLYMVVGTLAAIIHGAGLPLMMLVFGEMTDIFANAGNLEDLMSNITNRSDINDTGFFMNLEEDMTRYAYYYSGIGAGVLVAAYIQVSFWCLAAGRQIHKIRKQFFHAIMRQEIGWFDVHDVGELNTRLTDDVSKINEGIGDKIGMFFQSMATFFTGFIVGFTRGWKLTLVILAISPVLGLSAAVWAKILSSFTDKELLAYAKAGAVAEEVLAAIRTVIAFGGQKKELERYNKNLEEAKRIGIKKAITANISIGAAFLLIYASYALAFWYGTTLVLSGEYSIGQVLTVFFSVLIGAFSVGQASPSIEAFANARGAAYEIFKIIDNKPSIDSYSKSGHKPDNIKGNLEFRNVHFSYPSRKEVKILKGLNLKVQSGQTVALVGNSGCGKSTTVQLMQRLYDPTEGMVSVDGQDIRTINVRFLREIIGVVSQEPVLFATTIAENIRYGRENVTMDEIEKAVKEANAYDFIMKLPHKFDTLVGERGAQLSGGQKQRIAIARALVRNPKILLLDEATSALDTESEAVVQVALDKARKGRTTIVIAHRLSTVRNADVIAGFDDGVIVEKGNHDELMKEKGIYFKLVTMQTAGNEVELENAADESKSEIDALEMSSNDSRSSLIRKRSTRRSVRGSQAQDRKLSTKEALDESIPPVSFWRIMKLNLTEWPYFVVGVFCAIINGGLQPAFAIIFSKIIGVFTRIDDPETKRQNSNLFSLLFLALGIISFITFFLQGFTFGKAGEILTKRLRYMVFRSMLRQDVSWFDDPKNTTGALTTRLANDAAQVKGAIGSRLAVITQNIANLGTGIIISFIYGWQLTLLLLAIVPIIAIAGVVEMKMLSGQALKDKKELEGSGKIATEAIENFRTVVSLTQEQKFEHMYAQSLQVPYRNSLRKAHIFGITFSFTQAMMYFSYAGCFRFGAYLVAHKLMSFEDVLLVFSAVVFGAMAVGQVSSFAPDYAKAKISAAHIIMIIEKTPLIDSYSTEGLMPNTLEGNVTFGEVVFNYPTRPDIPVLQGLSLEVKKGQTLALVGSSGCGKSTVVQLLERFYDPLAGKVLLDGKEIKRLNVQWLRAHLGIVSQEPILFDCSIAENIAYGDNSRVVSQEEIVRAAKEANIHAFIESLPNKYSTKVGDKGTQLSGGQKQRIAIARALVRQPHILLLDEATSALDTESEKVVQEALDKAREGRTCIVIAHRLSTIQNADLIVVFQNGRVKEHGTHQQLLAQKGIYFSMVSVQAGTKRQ
# Experimental: The vanadate (Vi)-sensitive ATPase activity of BCRP and P-gp in the membrane vesicles of High Five insect cells was measured as described previously. The results were presented as vanadate-sensitive ATPase activities by determining the difference in inorganic phosphate liberation measured in the presence and absence of sodium orthovanadate.
# [6] = tested on: KB-C2 cells; assay: [3H]-paclitaxel accumulation assay, KB-C2; type: cell-based, human; conditions: resistant cell line KB-C2; compound 5 μM; Figure 6B
# Experimental: as §1
# [7] = Metabolic stability with human liver microsomes; type: in vitro ADME; conditions: after 1 h of incubation with human liver microsomes, 37 °C, NADPH; also: tested at 200 µM
# Experimental: Human liver microsome (20 mg/mL) 6.25 µL, nicotinamide adenine dinucleotide phosphate (NADPH) (0.75 µmol), MgCl2 (0.75 µmol), and the test compound (0.05 µmol) were added into a potassium phosphate buffer (pH 7.4) with 250 µL of final volume. The incubation was carried out aerobically at 37 °C. The mixture was pre-incubated without NADPH for 10 min at 37 °C and NADPH was added to start the reaction. At 1 h after the start of the reaction, an aliquot (50 µL) of the incubation mixture was taken from each incubation and mixed with 150 µL of ice-cold acetonitrile to terminate the reaction. Subsequently, the sample was centrifuged (12,000 rpm) at room temperature. The resulting supernatant was filtered and analyzed using HPLC (LC, Agilent 1200; column, HC-C18(2); column temperature, 25 °C; mobile phase, solvent A, methanol, solvent B, water; gradient elution, 30–99% solvent A; flow rate, 1 mL/min; UV signals were recorded at 254 nm).
# [8] = tested on: P-gp protein in KB-C2 cells; assay: Western blot of P-gp expression in KB-C2 cells; type: cell-based, human
# Experimental: as §2
# [9] = tested on: KB-3-1 cells; assay: [3H]-paclitaxel accumulation assay, KB-3-1; type: cell-based, human; conditions: parental cells KB-3-1; compound 5 μM; Figure 6B
# Experimental: as §1
smiles,measurement,setting,value
"c1ccc2c(Nc3ccc(C4CC4)cc3)nc(-c3ccncc3)nc2c1 [Compound 22, N-(4-Cyclopropylphenyl)-2-(pyridin-4-yl)quinazolin-4-amine]",accumulation of mitoxantrone,[1],increased the accumulation
same,sensitization to paclitaxel,[2],could sensitize KB-C2 cells
same,BCRP protein expression level in the cytoplasm,"[3]; H460/MX20 cytoplasm fraction, Figure 9B",increased
same,expression level of BCRP protein on the membrane,"[3]; H460/MX20 membrane fraction, Figure 9A",decreased
same,expression level of BCRP protein,"[3]; H460/MX20 total cell lysate, Figure 7",did not change the expression level
same,accumulation of mitoxantrone,[4],slightly increase
same,effect on Vi-sensitive P-gp ATPase activity,[5],neither stimulate or inhibit
same,accumulation of paclitaxel,[6],significantly increased
same,"Metabolic Stability, % compound remaining",[7],92% and 92 ± 8%
same,cytoplasmic P-gp expression level,"[8]; KB-C2 cytoplasm fraction, Figure 9D",slightly increased
same,expression level of the P-gp protein on the membrane,"[8]; KB-C2 membrane fraction, Figure 9C",slightly decreased
same,P-gp protein expression,"[8]; KB-C2 total cell lysate, Figure 7B",nor did it change the P-gp protein expression
same,accumulation of paclitaxel,[9],did not increase
